Data taken from patent US20220041613A1, “TYROSINE KINASE INHIBITOR COMPOSITIONS, METHODS OF MAKING AND METHODS OF USE” (Black Diamond Therapeutics, Inc., priority 2018, published 2022).
Read-outs that look alike come from different tables or passages of the source.

How the values were obtained:
[1] = system: covalently-activated EGFR variants (EGFR-Viii, EGFR-Vii, EGFR-Vvi, EGFR-A289V); assay: Western blot under non-reducing conditions: monomeric versus covalently dimerized and phosphorylated EGFR; type: cell-based, Homo sapiens
[2] = system: BaF3 cells expressing EGFR-Viii, EGFR-Vii or EGFR-A289V; assay: Proliferation of BaF3 cells expressing covalently-activated EGFR; type: cell-based, murine
HER2 WT = target: T1, HER2 WT (Homo sapiens, UniProt P04626); assay: Assay for cell proliferation (CellTiterGlo), Activity for Inhibiting HER2; type: cell-based
T1 construct: endogenous in cells; host or cells: BT474

EGFR WT = target: T2, EGFR WT (Homo sapiens, UniProt P00533); assay: Assay for cell proliferation (CellTiterGlo), Activity for Inhibiting EGFR; type: cell-based; conditions: potency code, 3 days drug
T2 construct: endogenous in cells; host or cells: A431 (+H292)

HER2 S310F = target: T3, HER2 S310F (Homo sapiens, UniProt P04626, S310F); assay: Assay for cell proliferation (BaF3 transformants, CellTiterGlo), Activity for Inhibiting HER2; type: cell-based; conditions: potency code, 3 days drug
T3 construct: expressed in transfected cells; host or cells: BaF3 (murine pro-B) transformants

EGFR V3 (EGFR-Viii) = target: T4, EGFR V3 (EGFR-Viii) (Homo sapiens, UniProt P00533, DELINS30-297G); assay: Assay for cell proliferation (BaF3 transformants, CellTiterGlo), Activity for Inhibiting EGFR; type: cell-based; conditions: potency code, 3 days drug
T4 construct: expressed in transfected cells; host or cells: BaF3 (murine pro-B), retroviral pMXs-IRES-Blasticidin, selected for IL-3 independence
Protocol: (§1) Retroviral Production: EGFR mutants were subcloned into pMXs-IRES-Blasticidin (RTV-016, Cell Biolabs, San Diego, Calif.). Retroviral expression vector retrovirus was produced by transient transfection of HEK 293T cells with the retroviral EGFR mutant expression vector pMXs-IRES-Blasticidin (RTV-016, Cell Biolabs), pCMV-Gag-Pol vector and pCMV-VSV-G-Envelope vector. HEK 293T/17 cells were plated in 100 mm collagen coated plate (354450, Corning Life Sciences, Tewksbury, Mass.) (4×10^5 per plate) and incubated overnight. The next day, retroviral plasmids (3 μg of EGFR mutant, 1.0 μg of pCMV-Gag-Pol and 0.5 μg pCMV-VSV-G) were mixed in 500 μl of Optimem (31985, Life Technologies). The mixture was incubated at room temperature for 5 min and then added to Optimem containing transfection reagent Lipofectamine (11668, Invitrogen) and incubated for 20 minutes. Mixture was then added dropwise to HEK 293T cells. The next day the medium was replaced with fresh culture medium and retrovirus was harvested @ 24 and 48 hrs. Generation of EGFR mutant stable cell lines: BaF3 cells (1.5E5 cells) were infected with 1 ml of viral supernatant supplemented with 8 μg/ml polybrene by centrifuging for 30 min at 1000 rpm. Cells were placed in a 37° C. incubator overnight. Cells were then spun for 5 minutes to pellet the cells. Supernatant was removed and cells re-infected a fresh 1 ml of viral supernatant supplemented with 8 μg/ml polybrene by centrifuging for 30 min at 1000 rpm. Cells were placed in 37° C. incubator overnight. […] After 48 hours cells were selected for retroviral infection in 10 μg/ml Blasticidin for one week. Blasticidin resistant populations were washed twice in phosphate buffered saline before plating in media lacking IL-3 to select for IL-3 independent growth.
as §1, with “fresh 1 m1 of viral” for “fresh 1 ml of viral”

HER2 YVMA = target: T5, HER2 YVMA (Homo sapiens, UniProt P04626, INS775YVMA); assay: Assay for cell proliferation (BaF3 transformants, CellTiterGlo), Activity for Inhibiting HER2; type: cell-based; conditions: potency code, 3 days drug
T5 construct: expressed in transfected cells; host or cells: BaF3 (murine pro-B) transformants

EGFR NPH = target: T6, EGFR NPH (Homo sapiens, UniProt P00533, INS773NPH); assay: Assay for cell proliferation (BaF3 transformants, CellTiterGlo), Activity for Inhibiting EGFR; type: cell-based; conditions: potency code, 3 days drug
T6 construct: expressed in transfected cells; host or cells: BaF3 (murine pro-B), retroviral pMXs-IRES-Blasticidin, selected for IL-3 independence
Protocol: as §1
as §1, with “fresh 1 m1 of viral” for “fresh 1 ml of viral”

EGFR SVD = target: T7, EGFR SVD (Homo sapiens, UniProt P00533, INS770SVD); assay: as above; type: cell-based; conditions: potency code, 3 days drug
T7 construct: expressed in transfected cells; host or cells: BaF3 (murine pro-B), retroviral pMXs-IRES-Blasticidin, selected for IL-3 independence
Protocol: as §1
as §1, with “fresh 1 m1 of viral” for “fresh 1 ml of viral”

[3] = covalent dimers of covalently-activated EGFR variants, cells expressing EGFR-Vii and EGFR-A289V (FIG. 8)
[4] = Table B (Example 2), potency code, 3 days drug, read-out: HER2 WT
[5] = Table B, potency code, 3 days drug, read-out: HER2 WT
[6] = 'about ... or less', read-out: IC50 value for inhibiting wild-type HER2

T1 sequence (P04626 23-1255): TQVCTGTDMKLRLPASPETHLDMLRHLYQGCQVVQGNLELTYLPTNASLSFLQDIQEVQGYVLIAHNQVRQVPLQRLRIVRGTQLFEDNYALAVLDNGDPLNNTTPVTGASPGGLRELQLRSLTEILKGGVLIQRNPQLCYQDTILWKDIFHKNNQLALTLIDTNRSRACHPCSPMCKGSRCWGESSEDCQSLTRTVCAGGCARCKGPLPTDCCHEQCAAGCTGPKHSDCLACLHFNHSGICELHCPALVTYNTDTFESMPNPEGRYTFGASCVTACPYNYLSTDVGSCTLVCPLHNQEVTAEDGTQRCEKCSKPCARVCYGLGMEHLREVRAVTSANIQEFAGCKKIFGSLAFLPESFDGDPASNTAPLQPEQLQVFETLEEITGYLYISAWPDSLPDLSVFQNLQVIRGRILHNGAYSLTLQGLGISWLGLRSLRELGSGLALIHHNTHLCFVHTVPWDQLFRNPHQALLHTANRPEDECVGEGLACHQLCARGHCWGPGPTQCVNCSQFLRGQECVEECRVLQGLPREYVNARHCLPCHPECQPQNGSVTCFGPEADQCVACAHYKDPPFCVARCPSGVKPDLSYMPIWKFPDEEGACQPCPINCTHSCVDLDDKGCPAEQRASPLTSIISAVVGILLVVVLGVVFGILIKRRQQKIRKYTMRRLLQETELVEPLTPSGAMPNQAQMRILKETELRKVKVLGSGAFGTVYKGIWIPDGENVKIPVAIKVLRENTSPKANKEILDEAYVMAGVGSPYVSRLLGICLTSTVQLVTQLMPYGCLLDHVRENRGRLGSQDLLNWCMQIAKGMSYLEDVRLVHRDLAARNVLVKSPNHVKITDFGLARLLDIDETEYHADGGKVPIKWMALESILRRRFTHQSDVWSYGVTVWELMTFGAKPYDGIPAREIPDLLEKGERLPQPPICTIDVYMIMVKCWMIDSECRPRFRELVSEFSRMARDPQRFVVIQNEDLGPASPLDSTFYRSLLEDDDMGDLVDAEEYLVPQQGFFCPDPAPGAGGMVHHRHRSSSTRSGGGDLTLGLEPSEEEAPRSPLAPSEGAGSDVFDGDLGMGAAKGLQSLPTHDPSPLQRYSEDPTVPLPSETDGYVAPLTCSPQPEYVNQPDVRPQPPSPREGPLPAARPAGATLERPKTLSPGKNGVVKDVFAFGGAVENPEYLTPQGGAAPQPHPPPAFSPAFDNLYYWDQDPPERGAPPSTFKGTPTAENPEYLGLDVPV
T5 sequence (P04626 with tags, fused parts or gaps INS775YVMA): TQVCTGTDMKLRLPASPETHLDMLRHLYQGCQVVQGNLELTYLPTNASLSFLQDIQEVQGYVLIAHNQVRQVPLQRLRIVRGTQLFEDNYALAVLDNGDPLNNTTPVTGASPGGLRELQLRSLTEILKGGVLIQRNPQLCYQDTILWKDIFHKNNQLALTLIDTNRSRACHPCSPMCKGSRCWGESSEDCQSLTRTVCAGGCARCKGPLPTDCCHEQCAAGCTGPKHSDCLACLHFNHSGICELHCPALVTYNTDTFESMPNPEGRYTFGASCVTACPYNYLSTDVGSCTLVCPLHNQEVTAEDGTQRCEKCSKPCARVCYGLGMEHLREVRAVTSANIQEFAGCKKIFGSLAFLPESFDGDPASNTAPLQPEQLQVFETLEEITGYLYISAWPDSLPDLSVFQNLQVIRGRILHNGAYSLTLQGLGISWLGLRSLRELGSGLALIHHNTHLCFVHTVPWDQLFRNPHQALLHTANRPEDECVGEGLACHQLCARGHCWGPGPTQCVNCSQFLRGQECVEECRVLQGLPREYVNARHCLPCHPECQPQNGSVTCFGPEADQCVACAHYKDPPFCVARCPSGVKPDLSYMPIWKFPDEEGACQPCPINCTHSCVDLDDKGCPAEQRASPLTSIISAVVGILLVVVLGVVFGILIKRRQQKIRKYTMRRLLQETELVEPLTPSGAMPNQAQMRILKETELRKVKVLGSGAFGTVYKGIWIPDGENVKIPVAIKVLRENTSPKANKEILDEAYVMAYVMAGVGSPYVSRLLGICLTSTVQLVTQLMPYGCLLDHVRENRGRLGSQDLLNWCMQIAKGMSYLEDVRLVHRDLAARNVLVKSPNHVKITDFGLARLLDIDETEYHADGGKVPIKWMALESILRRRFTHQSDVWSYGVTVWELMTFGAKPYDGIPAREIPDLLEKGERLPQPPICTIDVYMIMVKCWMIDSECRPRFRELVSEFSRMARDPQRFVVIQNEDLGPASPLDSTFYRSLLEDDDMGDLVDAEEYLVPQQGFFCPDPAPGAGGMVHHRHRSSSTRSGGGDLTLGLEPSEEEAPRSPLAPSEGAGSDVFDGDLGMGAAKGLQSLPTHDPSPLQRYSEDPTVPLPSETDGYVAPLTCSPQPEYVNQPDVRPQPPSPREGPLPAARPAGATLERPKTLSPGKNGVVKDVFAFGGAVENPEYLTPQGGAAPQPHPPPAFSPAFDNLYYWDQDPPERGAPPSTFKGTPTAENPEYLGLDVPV
T3 sequence (P04626 23-1255 S310F): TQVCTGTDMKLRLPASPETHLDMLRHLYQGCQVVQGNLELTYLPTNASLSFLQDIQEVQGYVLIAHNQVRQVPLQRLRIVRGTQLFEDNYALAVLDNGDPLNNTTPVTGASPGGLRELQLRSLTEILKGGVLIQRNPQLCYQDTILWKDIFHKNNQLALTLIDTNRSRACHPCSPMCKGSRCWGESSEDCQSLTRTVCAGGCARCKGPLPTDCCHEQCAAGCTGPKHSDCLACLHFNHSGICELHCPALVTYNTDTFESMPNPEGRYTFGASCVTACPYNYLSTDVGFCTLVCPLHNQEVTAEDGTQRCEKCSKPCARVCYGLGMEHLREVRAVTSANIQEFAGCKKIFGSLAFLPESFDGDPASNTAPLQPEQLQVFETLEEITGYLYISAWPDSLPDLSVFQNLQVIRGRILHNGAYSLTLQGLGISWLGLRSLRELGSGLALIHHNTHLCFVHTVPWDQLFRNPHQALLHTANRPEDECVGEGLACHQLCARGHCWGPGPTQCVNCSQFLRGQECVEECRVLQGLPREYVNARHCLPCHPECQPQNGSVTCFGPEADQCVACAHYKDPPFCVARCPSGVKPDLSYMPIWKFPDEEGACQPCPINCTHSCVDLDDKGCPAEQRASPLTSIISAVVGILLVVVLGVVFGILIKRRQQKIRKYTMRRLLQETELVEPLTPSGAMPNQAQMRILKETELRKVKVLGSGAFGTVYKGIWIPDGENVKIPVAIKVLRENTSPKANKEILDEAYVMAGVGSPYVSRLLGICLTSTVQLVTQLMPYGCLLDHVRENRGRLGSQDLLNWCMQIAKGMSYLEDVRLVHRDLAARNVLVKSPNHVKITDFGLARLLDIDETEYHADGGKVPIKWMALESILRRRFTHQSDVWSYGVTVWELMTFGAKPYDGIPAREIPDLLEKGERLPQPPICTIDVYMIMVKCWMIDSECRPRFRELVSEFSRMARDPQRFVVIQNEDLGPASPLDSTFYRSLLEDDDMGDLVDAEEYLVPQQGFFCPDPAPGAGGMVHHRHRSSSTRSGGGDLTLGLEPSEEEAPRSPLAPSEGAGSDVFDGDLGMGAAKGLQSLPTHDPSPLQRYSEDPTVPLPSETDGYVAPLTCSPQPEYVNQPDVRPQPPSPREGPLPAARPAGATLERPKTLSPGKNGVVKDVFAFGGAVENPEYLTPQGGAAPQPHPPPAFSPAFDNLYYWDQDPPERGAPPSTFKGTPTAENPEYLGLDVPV
T4 sequence (P00533 with tags, fused parts or gaps DELINS30-297G): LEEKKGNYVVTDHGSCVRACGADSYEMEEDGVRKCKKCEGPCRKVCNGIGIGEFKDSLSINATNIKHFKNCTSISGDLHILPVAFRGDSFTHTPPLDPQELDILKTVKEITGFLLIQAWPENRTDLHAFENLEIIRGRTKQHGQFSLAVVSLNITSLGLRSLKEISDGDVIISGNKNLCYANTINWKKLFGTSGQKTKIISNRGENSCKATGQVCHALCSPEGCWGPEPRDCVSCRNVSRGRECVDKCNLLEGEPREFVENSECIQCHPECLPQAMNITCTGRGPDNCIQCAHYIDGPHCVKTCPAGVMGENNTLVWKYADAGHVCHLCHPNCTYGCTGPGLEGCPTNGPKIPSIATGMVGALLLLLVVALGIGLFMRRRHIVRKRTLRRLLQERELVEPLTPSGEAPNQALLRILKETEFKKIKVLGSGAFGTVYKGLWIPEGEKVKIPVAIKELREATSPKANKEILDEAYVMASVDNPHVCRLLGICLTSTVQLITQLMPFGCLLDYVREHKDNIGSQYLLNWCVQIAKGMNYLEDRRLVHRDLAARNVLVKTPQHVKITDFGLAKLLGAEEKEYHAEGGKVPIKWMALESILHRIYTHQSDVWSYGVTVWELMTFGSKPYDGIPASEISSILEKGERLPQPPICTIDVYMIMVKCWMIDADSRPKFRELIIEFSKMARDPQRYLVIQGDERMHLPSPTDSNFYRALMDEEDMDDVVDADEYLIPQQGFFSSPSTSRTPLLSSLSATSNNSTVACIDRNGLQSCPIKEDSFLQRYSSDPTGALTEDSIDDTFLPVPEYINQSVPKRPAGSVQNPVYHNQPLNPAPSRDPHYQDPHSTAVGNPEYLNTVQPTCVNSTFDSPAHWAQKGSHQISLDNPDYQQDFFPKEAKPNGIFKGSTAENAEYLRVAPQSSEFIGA

| SMILES | IC50 (HER2 WT; [4]) [nM] | IC50 (HER2 WT; [5]) [nM] | IC50 (EGFR WT; Table A (Example 2)) [nM] | IC50 (EGFR WT; Table A) [nM] | IC50 (HER2 S310F; Table B (Example 2)) [nM] | IC50 (HER2 S310F; Table B) [nM] | IC50 (EGFR V3 (EGFR-Viii); Table A (Example 2)) [nM] | IC50 (EGFR V3 (EGFR-Viii); Table A) [nM] | IC50 (HER2 WT; [6]) [nM] | other results |
| --- | --- | --- | --- | --- | --- | --- | --- | --- | --- | --- |
| C=CC(=O)Nc1ccc2ncnc(Nc3ccc(OCc4cccc(F)c4)c(Cl)c3)c2c1 [AST-1306] |  |  |  |  |  |  |  |  |  | Induced dimers [1, 3]: No |
| C=CC(=O)Nc1cccc(Nc2nc(Nc3ccc(N4CCN(C(C)=O)CC4)cc3OC)ncc2C(F)(F)F)c1 [CO-1686] |  |  |  |  |  |  |  |  |  | Induced dimers [1]: Yes |
| COc1cc2ncnc(Nc3ccc(F)c(Cl)c3)c2cc1NC(=O)/C=C/CN1CCCCC1 [Dacomitinib, dacomitinib] |  |  |  |  |  |  |  |  |  | Induced dimers [1, 3]: Yes |
| CCOc1cc2ncc(C#N)c(Nc3ccc(OCc4cccc(F)c4)c(Cl)c3)c2cc1NC(=O)/C=C/CN(C)C [HKI-357] |  |  |  |  |  |  |  |  |  | Induced dimers [1, 3]: No |
| CN(C)C/C=C/C(=O)Nc1cc2c(Nc3ccc(F)c(Cl)c3)ncnc2cc1C#CC1[C@H]2COC[C@@H]12 (stereo partly drawn) [NT-113] |  |  |  |  |  |  |  |  |  | formation of covalent EGFR dimers ([1]; cells expressing covalently-activated EGFR variants, non-reducing conditions): induces dimerization; proliferation of cells expressing covalently-activated EGFR (paradoxical activation) ([2]; sub-saturating concentrations, up to 72 hours): no evidence for increased cellular proliferation |
| CCOc1cc2ncc(C#N)c(Nc3ccc(OCc4ccccn4)c(Cl)c3)c2cc1NC(=O)/C=C/CN(C)C [Neratinib, neratinib] |  |  |  |  |  |  |  |  |  | proliferation of cells expressing covalently-activated EGFR (paradoxical activation) [2]: devoid of paradoxical activation |
| CCOc1cc2ncc(C#N)c(Nc3ccc(F)c(Cl)c3)c2cc1NC(=O)/C=C/CN(C)C [Pelitinib, pelitinib] |  |  |  |  |  |  |  |  |  | Induced dimers [1]: Yes |
| C=CC(=O)Nc1cc2c(Nc3ccc4c(cnn4Cc4cccc(F)c4)c3)ncnc2cc1N(C)CCN(C)C [compound 1] | 20 to 30 | 20 to 30 | 500 to 1000 | 500 to 1000 | 100 to 200 | 100 to 200 | 50 to 100 | 50 to 100 |  |  |
| C=CC(=O)Nc1cc2c(Nc3ccc4c(cnn4Cc4cccc(F)c4)c3)ncnc2cc1N(C)CCN1CCOCC1 [compound 2] | 20 to 30 | 20 to 30 | > 1000 | > 1000 | 100 to 200 | 100 to 200 | 30 to 50 | 30 to 50 |  |  |
| C=CC(=O)Nc1cc2c(Nc3ccc4c(cnn4Cc4cccc(F)c4)c3)ncnc2cc1N(C)CCCN1CCOCC1 [compound 4] | 10 to 20 | 10 to 20 | 500 to 1000 | 500 to 1000 | 100 to 200 | 100 to 200 | 30 to 50 | 30 to 50 | ≤ 20 |  |
| C=CC(=O)Nc1cc2c(Nc3ccc4c(cnn4Cc4cccc(F)c4)c3)ncnc2cc1NCCN1CCOCC1 [compound 5] | 5 to 10 | 5 to 10 | 200 to 300 | 200 to 300 | 100 to 200 | 100 to 200 | 100 to 200 | 100 to 200 | ≤ 10 |  |
| C=CC(=O)Nc1cc2c(Nc3ccc4c(cnn4Cc4cccc(F)c4)c3)ncnc2cc1OCCCN1CC2CC1CO2 (stereo not drawn) [compound 6] | < 5 | < 5 | 100 to 200 | 100 to 200 | 10 to 20 | 10 to 20 | 30 to 50 | 30 to 50 | ≤ 6 |  |
| C=CC(=O)Nc1cc2c(Nc3ccc4c(cnn4Cc4cccc(F)c4)c3)ncnc2cc1N(C)CCCN1CC2CC1CO2 (stereo not drawn) [compound 7] | 10 to 20 | 10 to 20 | 300 to 500 | 300 to 500 | 100 to 200 | 100 to 200 | 100 to 200 | 100 to 200 | ≤ 20 |  |
| C=CC(=O)Nc1cc2c(Nc3ccc4c(cnn4Cc4cccc(F)c4)c3)ncnc2cc1OCCN1CCCCC1 [compound 8] | 5 to 10 | 5 to 10 | 100 to 200 | 100 to 200 | 10 to 20 | 10 to 20 | 20 to 30 | 20 to 30 | ≤ 10 | IC50 (HER2 YVMA; Table B (Example 2)): 100 to 200 nM; IC50 (HER2 YVMA; Table B): 100 to 200 nM; IC50 (EGFR NPH; Table A (Example 2)): 30 to 50 nM; IC50 (EGFR NPH; Table A): 30 to 50 nM; IC50 (EGFR SVD; Table A (Example 2)): 30 to 50 nM; IC50 (EGFR SVD; Table A): 30 to 50 nM |
| C=CC(=O)Nc1cc2c(Nc3ccc4c(cnn4Cc4cccc(F)c4)c3)ncnc2cc1C#CC(C)(C)N1CCN(C)CC1 [compound 9] | 5 to 10 | 5 to 10 | 300 to 500 | 300 to 500 | 10 to 20 | 10 to 20 | 30 to 50 | 30 to 50 | ≤ 10 | IC50 (HER2 YVMA; Table B (Example 2)): 50 to 100 nM; IC50 (HER2 YVMA; Table B): 50 to 100 nM; IC50 (EGFR NPH; Table A (Example 2)): 30 to 50 nM; IC50 (EGFR NPH; Table A): 30 to 50 nM; IC50 (EGFR SVD; Table A (Example 2)): 30 to 50 nM; IC50 (EGFR SVD; Table A): 30 to 50 nM |
| C=CC(=O)Nc1cc2c(Nc3ccc4c(cnn4Cc4cccc(F)c4)c3)ncnc2cc1OCCN(C)C [compound 10] | < 5 | < 5 | 100 to 200 | 100 to 200 | 20 to 30 | 20 to 30 | 20 to 30 | 20 to 30 | ≤ 6 | IC50 (HER2 YVMA; Table B (Example 2)): 50 to 100 nM; IC50 (HER2 YVMA; Table B): 50 to 100 nM; IC50 (EGFR NPH; Table A (Example 2)): 30 to 50 nM; IC50 (EGFR NPH; Table A): 30 to 50 nM; IC50 (EGFR SVD; Table A (Example 2)): 30 to 50 nM; IC50 (EGFR SVD; Table A): 30 to 50 nM |
